# Data from patent US4824937A, “Synthetic natriuretic peptides” (501 Advanced Peptide Development, Ltd., priority 1986, dated 1989).
# Ends that are not written are not given here.
# System: male normotensive Sprague-Dawley rats
# Test: Effects upon electrolyte excretion (Na+, K+, Cl- in urine) after i.v. bolus in anesthetized rats
# Assay type: in vivo, rat
# Details: 3.5 mcg/kg i.v. bolus, pooled urine of 8 rats
# Procedure: The diuretic activities of the synthetic natriuretic peptides (SNP) of this invention and their effects upon electrolyte excretion are determined in male normotensive Sprague-Dawley rats. The animals are anesthetized with sodium pentobarbital (55 mg/kg), the femoral vein is cannulated for injection of the test compound and for infusion of Ringer's solution, the bladder is cannulated for urine collection, and the trachea is cannulated to ensure a clean airway. The animals are infused with Ringer's solution at a rate of 1.2 ml/20 min. for 20 minutes, the infusion rate is then decreased to 1.2 ml/hour for a further 20 minutes, and urine collections are started at the end of that period. Three 10-minute collections are taken as control samples, and at the end of the third 10-minute period the SNP to be tested is injected as a bolus over 30 seconds into the femoral vein. Infusion of Ringer's solution at 1.2 ml/hour is continued for the duration of the experiment, and urine samples are collected every 10 minutes over 4 hours, their respective volumes are determined, and the concentrations of Na^+, Cl^-, and K^+ are measured using a NovaBiomedical electrolyte analyzer. The above determinations are done on samples pooled from all animals in a given experiment, and urine flow is calculated as ml/min./kg body weight while electrolyte concentrations are calculated as mmol/l/gm kidney tissue.
# Details of the assay method are described above, and it remains only to be stated that 8 male normotensive Sprague-Dawley rats are used in each group. […] Urine flow then decreases sharply and is at control volumes at about 40 minutes where it remains until about 140 minutes.
substance,measurement,setting,value
"BG-3009: known ANP composed of 28 amino acid residues, identical with the ANP described by Flynn et al. (SLRRSSCFGGRIDRIGAQSGLGCNSFRY; not fully specified; ends and bridges not checked; UniProt P01161 123-150, looked up)",ELECTROLYTE EXCRETION Cl^-,80 min after injection,13.0 mmol/l./gm. kidney tissue
same,ELECTROLYTE EXCRETION K^+,80 min after injection,7.9 mmol/l./gm. kidney tissue
same,ELECTROLYTE EXCRETION Na^+,80 min after injection,6.5 mmol/l./gm. kidney tissue
same,ELECTROLYTE EXCRETION Cl^-,90 min after injection,13.3 mmol/l./gm. kidney tissue
same,ELECTROLYTE EXCRETION K^+,90 min after injection,8.0 mmol/l./gm. kidney tissue
same,ELECTROLYTE EXCRETION Na^+,90 min after injection,6.4 mmol/l./gm. kidney tissue
same,ELECTROLYTE EXCRETION Cl^-,100 min after injection,13.3 mmol/l./gm. kidney tissue
same,ELECTROLYTE EXCRETION K^+,100 min after injection,8.2 mmol/l./gm. kidney tissue
same,ELECTROLYTE EXCRETION Na^+,100 min after injection,6.3 mmol/l./gm. kidney tissue
same,ELECTROLYTE EXCRETION Cl^-,110 min after injection,13.1 mmol/l./gm. kidney tissue
same,ELECTROLYTE EXCRETION K^+,110 min after injection,8.2 mmol/l./gm. kidney tissue
same,ELECTROLYTE EXCRETION Na^+,110 min after injection,6.5 mmol/l./gm. kidney tissue
same,ELECTROLYTE EXCRETION Cl^-,120 min after injection,13.7 mmol/l./gm. kidney tissue
same,ELECTROLYTE EXCRETION K^+,120 min after injection,8.5 mmol/l./gm. kidney tissue
same,ELECTROLYTE EXCRETION Na^+,120 min after injection,6.7 mmol/l./gm. kidney tissue
same,ELECTROLYTE EXCRETION Cl^-,130 min after injection,13.6 mmol/l./gm. kidney tissue
same,ELECTROLYTE EXCRETION K^+,130 min after injection,8.6 mmol/l./gm. kidney tissue
same,ELECTROLYTE EXCRETION Na^+,130 min after injection,6.6 mmol/l./gm. kidney tissue
same,ELECTROLYTE EXCRETION Cl^-,140 min after injection,14.8 mmol/l./gm. kidney tissue
same,ELECTROLYTE EXCRETION K^+,140 min after injection,9.0 mmol/l./gm. kidney tissue
same,ELECTROLYTE EXCRETION Na^+,140 min after injection,7.0 mmol/l./gm. kidney tissue
same,ELECTROLYTE EXCRETION Cl^-,150 min after injection,15.2 mmol/l./gm. kidney tissue
same,ELECTROLYTE EXCRETION K^+,150 min after injection,9.4 mmol/l./gm. kidney tissue
same,ELECTROLYTE EXCRETION Na^+,150 min after injection,7.3 mmol/l./gm. kidney tissue
same,ELECTROLYTE EXCRETION Cl^-,160 min after injection,14.2 mmol/l./gm. kidney tissue
same,ELECTROLYTE EXCRETION K^+,160 min after injection,9.4 mmol/l./gm. kidney tissue
same,ELECTROLYTE EXCRETION Na^+,160 min after injection,7.4 mmol/l./gm. kidney tissue
same,ELECTROLYTE EXCRETION Cl^-,170 min after injection,14.4 mmol/l./gm. kidney tissue
same,ELECTROLYTE EXCRETION K^+,170 min after injection,9.2 mmol/l./gm. kidney tissue
same,ELECTROLYTE EXCRETION Na^+,170 min after injection,7.7 mmol/l./gm. kidney tissue
same,ELECTROLYTE EXCRETION Cl^-,180 min after injection,14.8 mmol/l./gm. kidney tissue
same,ELECTROLYTE EXCRETION K^+,180 min after injection,9.1 mmol/l./gm. kidney tissue
same,ELECTROLYTE EXCRETION Na^+,180 min after injection,8.3 mmol/l./gm. kidney tissue
same,ELECTROLYTE EXCRETION Cl^-,190 min after injection,14.4 mmol/l./gm. kidney tissue
same,ELECTROLYTE EXCRETION K^+,190 min after injection,8.7 mmol/l./gm. kidney tissue
same,ELECTROLYTE EXCRETION Na^+,190 min after injection,8.7 mmol/l./gm. kidney tissue
same,ELECTROLYTE EXCRETION Cl^-,200 min after injection,14.7 mmol/l./gm. kidney tissue
same,ELECTROLYTE EXCRETION K^+,200 min after injection,8.5 mmol/l./gm. kidney tissue
same,ELECTROLYTE EXCRETION Na^+,200 min after injection,9.2 mmol/l./gm. kidney tissue
same,ELECTROLYTE EXCRETION Cl^-,210 min after injection,15.0 mmol/l./gm. kidney tissue
same,ELECTROLYTE EXCRETION K^+,210 min after injection,8.4 mmol/l./gm. kidney tissue
same,ELECTROLYTE EXCRETION Na^+,210 min after injection,9.6 mmol/l./gm. kidney tissue
same,ELECTROLYTE EXCRETION Cl^-,220 min after injection,15.3 mmol/l./gm. kidney tissue
same,ELECTROLYTE EXCRETION K^+,220 min after injection,8.3 mmol/l./gm. kidney tissue
same,ELECTROLYTE EXCRETION Na^+,220 min after injection,9.4 mmol/l./gm. kidney tissue
same,ELECTROLYTE EXCRETION Cl^-,230 min after injection,14.8 mmol/l./gm. kidney tissue
same,ELECTROLYTE EXCRETION K^+,230 min after injection,8.3 mmol/l./gm. kidney tissue
same,ELECTROLYTE EXCRETION Na^+,230 min after injection,9.2 mmol/l./gm. kidney tissue
same,ELECTROLYTE EXCRETION Cl^-,240 min after injection,15.7 mmol/l./gm. kidney tissue
same,ELECTROLYTE EXCRETION K^+,240 min after injection,8.5 mmol/l./gm. kidney tissue
same,ELECTROLYTE EXCRETION Na^+,240 min after injection,9.2 mmol/l./gm. kidney tissue
